The source of these data is patent publication US9724262B2, “Methods of diagnosing and treating neonatal reversion to fetal consciousness” (The Regents of the University of California, priority 2013, dated 2017).

Series [1] has as its system healthy neonatal foal. Nature of the series: Neurobehavioural (NB) scoring of a healthy neonatal foal infused i.v. with allopregnanolone. The series is classed as in vivo, Quarter Horse. The protocol: A healthy neonatal 50 kg Quarter Horse colt from the research herd at the School of Veterinary Medicine, University of California, Davis was selected for the infusion. The foal was born from a healthy Quarter Horse mare with a normal gestational length without complications, and normal observed parturition except that the placental passage was prolonged. Although retention of the placenta for 7 h post birth is not considered normal by most standards, the placenta was evaluated and determined to be complete and normal. […] The foal was deemed healthy based upon complete physical and neurological examinations immediately post birth. […] Repeat physical and neurological examinations at age 6 h, immediately prior to infusion, were also normal.
(§1) Intravenous catheters were placed aseptically in the right jugular vein for sample collection and in the left jugular vein for infusion of allopregnanolone. Allopregnanolone (5 alpha-pregnan-3 alpha-ol-20-one; Steraloids Inc., Newport, R.I., USA) was dissolved in an ethanol-based solution to a total concentration of 9 mg/ml. Infused dose and concentration of allopregnanolone in this foal were determined based on concentrations reported in in vivo studies in the modulation of the HPA axis in male rats (Naert, et al., (2007) Psychoneuroendocrinology 32, 1062-1078). An initial bolus of 0.05 mg/kg bwt i.v. of allopregnanolone was given followed by a constant rate infusion (CRI) of 0.02 mg/kg bwt/min using an infusion pump. Based on clinical effects of the initial dosage, a second bolus of 0.1 mg/kg bwt i.v. was given after 5 min and followed by a CRI of 0.04 mg/kg bwt/min for 5 min. The infusion was discontinued for 30 min to allow observation of any neurobehavioural (NB) alterations, and then a final bolus of 0.2 mg/kg bwt i.v. was given.
Neurobehavioural alterations were recorded and graded through a NB scoring system developed by the authors for the assessment of foals with NMS (Table 2). From preliminary work, foals with NMS had scores>8 from a range of 0 (normal foal) to 20 (comatose with paroxysmal activity). Mentation was defined as: normal if the foal was alert and responsive; quiet to obtunded if the foal was apparently lethargic but responsive to external stimuli (e.g., touch, sound); stuporous if level of consciousness was decreased but responsive to painful stimuli (e.g. pinching skin with haemostats); and comatose if the foal lost consciousness and was unresponsive to any stimuli. Paroxysmal activity was defined as abnormal events such as seizures or seizure-like activity, rhythmic limb movements, tremors or paddling. The NB scores were calculated at 5 min intervals throughout the infusion period. Following the infusion, the foal was observed hourly for the first 6 h and then at 12 h intervals for 2 days.
For NB comparison, a second age-matched clinically healthy neonatal Quarter Horse colt was infused with 99.9% ethanol diluted with 0.9% saline to a final concentration of 5% ethanol without allopregnanolone. Infusion of this solution followed the same protocol (dosage [based on 5% ethanol] and rate) of administration as for the first foal. The study was approved by an Animal Care and Use protocol from University of California, Davis.

The nature of series [2]: Plasma steroid and hormone concentrations (LC-MS) in the foal infused with allopregnanolone. The series is classed as in vivo, Quarter Horse. The protocol:
as §1
Heparinised blood samples were collected at birth, age 6 h and at 15 min intervals during the infusion. Blood was immediately centrifuged following collection and plasma stored at −80° C. until analysed by liquid chromatography mass spectrometry (LC-MS) utilising on-line sample extraction by turbulent flow chromatography (TFC) and detection by select reaction monitoring (SRM) on a triple quadrupole mass spectrometer. […] Free concentrations of 34 steroids were monitored in one analytical method over a 24-min run time. Detection and quantitation was accomplished using 3 or more SRM transitions per compound for all compounds other than 17-hydroxy pregnenolone where single ion monitoring (SIM) was utilised. This method was validated and the following assessed for each analyte: linearity, limit of detection, limit of quantitation, accuracy, precision, matrix effects, extraction recovery and potential endogenous interferences. […]

[3] abbreviates: age 6 ½ h, 15 minutes post initial infusion.

For the compound `CC(=O)[C@H]1CC[C@H]2[C@@H]3CC[C@H]4C[C@H](O)CC[C@]4(C)[C@H]3CC[C@]12C` [allopregnanolone, 5 alpha-pregnan-3 alpha-ol-20-one], the “Time after cessation of the infusion to signs of increased responsiveness” value in series [1] (after cessation of the infusion) is at most 8 min. Further, the Neurobehavior score is recorded as 14 in series [1] (age 6 ¼ h, bolus 0.05 mg/kg IV, CRI 0.02 mg/kg/min, score scale 0-20); 8 in series [1] (setting [3]); 15 in series [1] (age 6 ¾ h, bolus 0.2 mg/kg IV). Also, the NB score in series [1] (by 15 min after cessation of the infusion or the final bolus, standing, mild obtundation) is reported as 9; in series [1] (by 30 min after infusion, foal appeared normal) it was 0; in series [1] (infusion of higher concentrations (0.1 and 0.2 mg/kg bwt), foal recumbent, stuporous, unresponsive), 16. Further, the “Long-term NB effects following the infusion” value in series [1] (observed hourly for 6 h, then at 12 h intervals for 2 days) is on record as “No long-term NB effects were observed”. The Allopregnanolone plasma concentration in series [2] (age 6 ¼ h, bolus 0.05 mg/kg IV, CRI 0.02 mg/kg/min) is given as 478,909 pg/mL; in series [2] (setting [3]), 126,566 pg/mL; in series [2] (age 6 ¾ h, bolus 0.2 mg/kg IV), 466,208 pg/mL.
